Measurements from patent US20250257058A1, “COMPOSITIONS AND METHODS FOR INHIBITING CARP-1 BINDING TO NEMO” (The United States Government as represented by the …, priority 2022, published 2025).
Entries after “also recorded” stand apart in the source; their conditions may differ. Where two headings read alike, the source gives them in different places.

How the values were obtained:
MDA-MB-231 cells [1] = experiment: MTT cytotoxicity assay in MDA-MB-231 cells; type: cell-based; settings: for cytotoxicity at 5 µM: Homo sapiens; for Inhibition of viabilities as single agent compared with SNI-1: 24 h or 48 h
Protocol: Here, SNI-1 analogs were synthesized by incorporating combinations of substitutions on Rings A and C (FIG. 8). The efficacy of these compounds was analyzed in two different cell lines: MDA-MB-468 and MDA-MB-231. […] The duration of treatment time was 24 h for […] and 24 h and 48 h for MDA-MB-231 cells. These cells are a more aggressive form of TNBC cells. It expresses both epidermal growth factor (EGF) and transforming growth factor-alpha (TGF alpha) receptors.

MDA-MB-468 cells = experiment: MTT cytotoxicity assay in MDA-MB-468 cells; type: cell-based; settings: for Cell viability inhibition in combination with cisplatin compared with SNI-1: MDA-MB-468, 5 μM compound + 20 μM cisplatin; for Cell viability inhibition (%) (Single agent) MDA-MB-468: MTT, SNI analogs 5 μM, doxorubicin 5 μM, cisplatin 20 μM; for Cell viability inhibition as single agent compared with SNI-1: MDA-MB-468, single agent; for Cytotoxicity in combination with doxorubicin compared with SNI-1: MDA-MB-468, 5 μM compound + 5 μM doxorubicin
Protocol: (§1) The cell lines were cultured in Dulbecco's Modified Eagle's Medium and Roswell Park Memorial Institute (RPMI) as per ATCC recommendation. Media was supplemented with 10% FBS, 2 mM L-glutamine, 100 U/ml penicillin, and 100 mg/ml streptomycin and incubated at 37° C. in a 5% CO2 air humidified atmosphere.
(§2) For the in vitro cytotoxicity studies, cells were seeded in 96-well plates with approximately 5000-8000 cells per well, depending upon the cell's exponential growth.
(§3) For cytotoxic response, cells were analyzed using the MTT reagent dissolved in PBS (1 mg/ml) at pH 7.4. […] Cells were then incubated again for 2-4 hours at 37° C., after which time the MTT reagent was added and the cells were incubated an additional 2 hours. Following this, the media was supplanted by DMSO, and the plates were put on a shaker for 15 min. The absorbance was measured at 570 nm using a high-performance multi-mode plate reader (Synergy 2, BioTek). The percentage of surviving cells was calculated by comparing the treated cells' absorbance and legitimate controls cells. The same procedure was followed for all the cell lines and later calculate the percentage of viable cells independently.

HCC-1937 cells [2] = experiment: MTT cytotoxicity assay in HCC-1937 cells (BRCA-1 mutation); settings: 24 h
Protocol: as §1, §2, §3
(§4) Each histogram's columns indicate the percent of live/viable cells relative to their DMSO-treated controls.

HCC-1937 cells [3] = settings: human, 24 h, 5 μM
Protocol: as §1, §2, §3, §4

MDA-MB-231 cells [4] = settings: MDA-MB-231, 4T1 and resistant TNBC cells; 5 μM SNI-1 + 20 μM cisplatin; cited from earlier work
CARP-1 and NEMO binding = target: T1, CARP-1 and NEMO binding (Homo sapiens, UniProt Q8IX12); settings: biochemical mechanism; cited from earlier work
T1 sequence (Q8IX12 1-1150): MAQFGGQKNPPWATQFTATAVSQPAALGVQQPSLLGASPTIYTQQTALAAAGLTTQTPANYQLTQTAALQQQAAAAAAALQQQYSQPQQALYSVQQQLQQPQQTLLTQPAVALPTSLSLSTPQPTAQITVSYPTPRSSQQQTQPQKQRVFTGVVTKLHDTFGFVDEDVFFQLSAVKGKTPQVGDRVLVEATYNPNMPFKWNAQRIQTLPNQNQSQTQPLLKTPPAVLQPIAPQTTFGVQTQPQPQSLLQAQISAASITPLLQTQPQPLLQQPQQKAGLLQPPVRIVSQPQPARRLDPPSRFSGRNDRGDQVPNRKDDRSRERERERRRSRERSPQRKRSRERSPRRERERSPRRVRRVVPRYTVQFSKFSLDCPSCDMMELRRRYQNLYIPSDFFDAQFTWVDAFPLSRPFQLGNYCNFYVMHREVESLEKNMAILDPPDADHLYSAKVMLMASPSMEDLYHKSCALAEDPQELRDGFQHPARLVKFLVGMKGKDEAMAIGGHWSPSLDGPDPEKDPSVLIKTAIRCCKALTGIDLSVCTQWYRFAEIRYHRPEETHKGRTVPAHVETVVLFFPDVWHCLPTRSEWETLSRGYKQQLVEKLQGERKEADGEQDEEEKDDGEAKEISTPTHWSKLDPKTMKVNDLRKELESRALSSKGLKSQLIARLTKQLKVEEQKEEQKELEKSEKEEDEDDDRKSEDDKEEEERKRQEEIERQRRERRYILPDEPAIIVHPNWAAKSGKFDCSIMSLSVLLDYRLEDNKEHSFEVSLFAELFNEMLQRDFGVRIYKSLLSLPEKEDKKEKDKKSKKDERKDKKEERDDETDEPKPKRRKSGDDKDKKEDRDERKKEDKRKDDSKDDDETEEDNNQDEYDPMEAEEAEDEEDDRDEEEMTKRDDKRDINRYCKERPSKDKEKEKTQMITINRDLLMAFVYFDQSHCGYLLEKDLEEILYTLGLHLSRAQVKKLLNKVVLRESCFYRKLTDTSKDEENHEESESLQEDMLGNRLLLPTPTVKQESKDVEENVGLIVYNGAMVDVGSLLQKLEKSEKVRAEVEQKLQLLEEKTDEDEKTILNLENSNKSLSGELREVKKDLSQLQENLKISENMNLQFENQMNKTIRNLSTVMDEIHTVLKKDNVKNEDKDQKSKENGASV

4T1 TNBC = settings: cited from earlier work
[5] = Homo sapiens, MDA-MB-468, 5 μM compound + 5 μM doxorubicin, 24 h, read-out: Cell viability inhibition (%) with Doxorubicin MDA-MB-468
[6] = MDA-MB-231, 5 μM compound + 5 μM doxorubicin, 24 h, read-out: Cell viability inhibition (%) with Doxorubicin MDA-MB-231
[7] = single agent, SNI analogs 5 μM, doxorubicin 5 μM

Row | Compound | Cell viability inhibition in combination with cisplatin compared with SNI-1 (MDA-MB-468 cells; 24 h) | Cell viability inhibition (%) (Single agent) MDA-MB-468 (MDA-MB-468 cells; single agent, 24 h) | Cell viability inhibition (%) Single-agent HCC-1937 (HCC-1937 cells [3]) [%] | cytotoxicity at 5 µM (MDA-MB-468 cells; [5]) [%] | cytotoxicity at 5 µM (MDA-MB-231 cells [1]; [6]) [%] | Cell viability inhibition (%) Single-agent MDA-MB-231 (MDA-MB-231 cells [1]; [7]) [%] | other results
1 | COc1cccc2c1C(=O)c1c(O)c3c(c(O)c1C2=O)C[C@@](O)(C(=O)CO)C[C@@H]3O[C@H]1C[C@H](N)[C@H](O)[C@H](C)O1 [Doxorubicin, reference compound] | – | – | – | – | – | – | cytotoxicity at 5 µM (MDA-MB-231 cells [1]; MDA-MB-231, single agent, SNI analogs 5 μM, doxorubicin 5 μM, read-out: Cell viability inhibition (%) Single-agent MDA-MB-231): ~56%; cytotoxicity at 5 µM (MDA-MB-468 cells; Homo sapiens, MDA-MB-468, 24 h, read-out: Cell viability inhibition (%) (Single agent) MDA-MB-468): ~39%
2 | O=C(CSc1nc(-c2ccccc2)cs1)c1ccc(O)c(O)c1 [GL-216] | viability inhibition equal to or better than parent SNI-1 | 10 | – | – | – | – | Cell viability inhibition (%) with Cisplatin HCC-1937 (HCC-1937 cells [2]; 5 μM compound + 20 μM cisplatin): ~46%; Cell viability inhibition (%) Single-agent HCC-1937 (HCC-1937 cells [2]; single agent, SNI analogs 5 μM, cisplatin 20 μM): ~5%; Cell viability inhibition (%) with Doxorubicin MDA-MB-468 (MDA-MB-468 cells; 5 μM compound + 5 μM doxorubicin, 24 h): ~80%
3 | CCOC(=O)c1ccc(-n2nnnc2SCC(=O)c2ccc(O)c(O)c2)cc1 [GL-251, Ethyl 4-(5-((2-(3,4-dihydroxyphenyl)-2-oxoethyl)thio)-1H-tetrazol-1-yl)benzoate] | – | – | – | – | – | – | Cell viability inhibition as single agent compared with SNI-1 (MDA-MB-468 cells; 5 μM, 24 h): greater cell viability inhibition as a single agent when compared to SNI-1
4 | NS(=O)(=O)c1ccc(-n2nnnc2SCC(=O)c2ccc(O)c(O)c2)cc1 [GL-252, 4-(5-((2-(3,4-dihydroxyphenyl)-2-oxoethyl)thio)-1H-tetrazol-1-yl)benzenesulfonamide] | slightly higher viability inhibition compared with cisplatin and SNI-1 in combination or cisplatin alone; also recorded: viability inhibition equal to or better than parent SNI-1 | 18 | ~10 | 62 | – | – | Cell viability inhibition as single agent compared with SNI-1 (MDA-MB-468 cells; 5 μM, 24 h): greater cell viability inhibition as a single agent when compared to SNI-1
5 | Cc1ccc(-n2nnnc2SCC(=O)c2ccc3c(c2)OCCO3)cc1 [GL-268, 1-(2,3-dihydrobenzo[b][1,4]dioxin-6-yl)-2-((1-(p-tolyl)-1H-tetrazol-5-yl)thio)ethan-1-one] | viability inhibition equal to or better than parent SNI-1 | – | – | – | – | – | –
6 | Cc1ccc(-n2nnnc2SCC(=O)c2ccc(N3CCOCC3)cc2)cc1 [GL-269, 1-(4-morpholinophenyl)-2-((1-(p-tolyl)-1H-tetrazol-5-yl)thio)ethan-1-one] | much better activity in combination with cisplatin; also recorded: viability inhibition equal to or better than parent SNI-1 | 37 | ~10 | 53 | – | – | –
7 | COc1ccc(C(=O)CSc2nnnn2-c2ccc(C)cc2)cc1OC [GL-339, 1-(3,4-dimethoxyphenyl)-2-((1-(p-tolyl)-1H-tetrazol-5-yl)thio)ethan-1-one] | greater inhibition in combination with cisplatin | – | – | – | – | – | –
8 | O=C(CSc1nnnn1-c1ccc(Cl)cc1Cl)c1ccc(O)c(O)c1 [GL-341, 2-((1-(2,4-dichlorophenyl)-1H-tetrazol-5-yl)thio)-1-(3,4-dihydroxyphenyl)ethan-1-one] | greater inhibitory effect | ~3 | ~6 | ~49 | ~68 | ~21 | Efficacy in combination with cisplatin compared with SNI-1 (MDA-MB-231 cells [1]; MDA-MB-231, 5 μM compound + 20 μM cisplatin, 48 h): better efficacy when used in combination with cisplatin compared to SNI-1 and cisplatin itself; Inhibition of viabilities as single agent compared with SNI-1 (MDA-MB-231 cells [1]; MDA-MB-231, single agent, 5 μM): greater inhibition of viabilities than SNI-1; Cytotoxicity in combination with doxorubicin compared with SNI-1 (MDA-MB-468 cells; 24 h): slightly higher cytotoxicity
9 | O=C(CSc1nnnn1-c1ccc([N+](=O)[O-])cc1)c1ccc(O)c(O)c1 [GL-342, 1-(3,4-dihydroxyphenyl)-2-((1-(4-nitrophenyl)-1H-tetrazol-5-yl)thio)ethan-1-one] | greater inhibitory effect | ~22.27 | ~21 | ~50 | ~73 | ~23 | Inhibition of viabilities as single agent compared with SNI-1 (MDA-MB-231 cells [1]; MDA-MB-231, single agent, 5 μM): more cell viability inhibition; also recorded: greater inhibition of viabilities than SNI-1; Activity in combination with cisplatin compared with SNI-1 (HCC-1937 cells [2]; HCC-1937, 5 μM compound + 20 μM cisplatin): more cell viability inhibition than SNI-1 in combination with cisplatin; Extra loss of cell viability versus parent SNI-1 at 5 µM (MDA-MB-468 cells; Homo sapiens, MDA-MB-468 (FIG. 9), single agent, 5 μM, 24 h, read-out: Greater loss of cell viability as compared to parent SNI-1): ~10%; Cytotoxicity in combination with doxorubicin compared with SNI-1 (MDA-MB-468 cells; 24 h): slightly higher cytotoxicity; Cell viability inhibition as single agent compared with SNI-1 (MDA-MB-468 cells; 5 μM, 24 h): more cell viability inhibition
10 | NS(=O)(=O)c1ccc(-n2nnnc2SCC(=O)c2ccc(N3CCOCC3)cc2)cc1 [GL-343, 4-(5-((2-(4-morpholinophenyl)-2-oxoethyl)thio)-1H-tetrazol-1-yl)benzenesulfonamide] | – | ~2 | ~1 | ~57 | ~79 | ~36 | cytotoxicity at 5 µM (MDA-MB-231 cells [1]; MDA-MB-231, single agent, 5 μM, read-out: Greater inhibition of cell viability when compared with SNI-1 as a single agent): ~30%; Cytotoxicity in combination with doxorubicin compared with SNI-1 (MDA-MB-231 cells [1]; MDA-MB-231, 5 μM compound + 5 μM doxorubicin, 24 h): much better cytotoxicity when compared with SNI-1; Inhibition of viabilities as single agent compared with SNI-1 (MDA-MB-231 cells [1]; MDA-MB-231, single agent, 5 μM): greater inhibition of viabilities than SNI-1
11 | Cc1ccc(-n2nnnc2SCC(=O)c2ccc(O)c(O)c2)cc1 [SNI-1, 1-(3,4-dihydroxyphenyl)-2-((1-(p-tolyl)-1H-tetrazol-5-yl)thio)ethan-1-one] | – | 10 | 11 | ~75 | ~77 | ~8 | Loss of viability in combination with cisplatin (previous studies) (MDA-MB-231 cells [4]): significant loss of viability; Binding with CARP-1 and inhibition of its interaction with NEMO (CARP-1 and NEMO binding): binds with CARP-1 and inhibits its interaction with NEMO; Response as a single agent in the syngeneic 4T1 TNBC model (4T1 TNBC): failed its response
